Four compounds from patent USRE33024E, “Bronchodilating 8-hydroxy-5-(1R)-1-hydroxy-2-(N-((1R)-2-(p-methoxyphenyl)-1-methylethyl) -amino)ethyl) carbostyril and intermediates thereof” (Tanabe Seiyaku Co. Ltd., priority 1983, dated 1989) can be followed below.

Data set [1] concerns antigen-induced bronchoconstriction. In words: Inhibitory effect on antigen-induced bronchoconstriction (Konzett-Rossler method). The data set is classed as in vivo, guinea pig (Male Hartley). The following applies: Cavia porcellus, iv; i.v. one minute before ovalbumin challenge (30 μg/kg, i.v.); passively sensitized guinea pigs. As to the method:
Inhibitory effect on antigen-induced bronchoconstriction
Male Hartley guinea pigs (body weight: 280-520 g) were passively sensitized by intravenous injection of rabbit antiserum against ovalbumin (0.2 ml/100 g of body weight, PCA titer: ×1000), 24 hours later, the animals were anesthetized with α-chloralose (120 mg/kg, i.v.) and immobilized with gallamine triethiodide (5 mg/kg, i.v.) under artificial respiration. Lung volume changes were measured as overflow of air from the lung by the Konzett-Rossler method (cf. Arch. Exp. Pathol. Pharmakol., 195, 71 (1940)). The test compound was administered intravenously to the animals one minute before said animals were challenged with ovalbumin (30 μg/kg, i.v.). The ED50 (i.e., the dose of the test compound which is necessary to produce 50% reduction of antigen-induced bronchoconstruction) was estimated from the dose-response curve.

Data set [2] can be described thus: in vivo. The following applies: mouse, iv. As to the method:
(§1) A test compound was dissolved in 5% glucose solution, and the test compound solution (0.2 ml/10 g of body weight) was administered intravenously to Male ddY strain mice (body weight: 25-28 g). The LD50 of the test compound was estimated by the Up and Down method.

Data set [3] has as its system isolated tracheal muscle preparations of Male Hartley guinea pigs. In words: Bronchodilating activity: relaxation of histamine-induced contraction of isolated tracheal muscle preparations (Magnus' method). Set-up: species or system guinea pig (Male Hartley). As to the method: Isolated tracheal muscle preparations of Male Hartley guinea pigs (body weight: 430-645 g) were used to estimate the bronchodilating activity of a test compound according to Magnus' method. The preparation was suspended in an organ bath filled with 20 ml of Tyrode's solution (37° C.), and said solution was continuously bubbled with air. Histamine 2HCl was added to the bath (final concentration; 1×10^-5 g/ml) and the test compound was added thereto about 15 minutes after the addition of histamine 2HCl. Tension changes in the tracheal smooth muscle were recorded isometrically with a force-displacement transducer. Molar conentration of the test compound which produced 50% relaxation of the histamine-induced tracheal contraction were estimated from the concentration-response curve, and the potency ratio of the test compound to Isoproterenol was calculated therefrom.

In data set [4] the test system is Male ddY strain mice. In words: Acute toxicity (Up and Down method). The following applies: mouse, in vivo. As to the method:
as §1

Structures can show the parent of a compound that is named as a salt.

Take `COc1ccc(C[C@@H](C)NC[C@H](O)c2ccc(O)c3[nH]c(=O)ccc23)cc1` (relative stereo) [Comp. No. 2, 8-hydroxy-5-{1-hydroxy-2-[N-(2-(p-methoxyphenyl)-1-methylethyl)amino]ethyl}carbotyril (α-isomer) hydrochloride]: in data set [1], the ED50 is 0.00018 mg/kg. Besides, the LD50 in data set [2] worked out at 91.3 mg/kg.

In data set [2], `COc1ccc(C[C@@H](C)NC[C@H](O)c2ccc(O)c3[nH]c(=O)ccc23)cc1.Cl` [Comp. No. 1, 8-hydroxy-5-{(1R)-1-hydroxy-2-[N-((1R)-2-(p-methoxyphenyl)-1-methylethyl)amino]ethyl}carbostyril hydrochloride] registered an LD50 of 84.6 mg/kg. Further, the “bronchodilating activity, times as strong as Isoproterenol” value in data set [3] (isolated tracheal chains of guinea pigs, versus Isoproterenol) is recorded as approximately 100 times. Besides, the “bronchodilating activity, times as strong as procaterol” value in data set [3] (isolated tracheal chains of guinea pigs, versus procaterol) is “about 10 times”.

On to `CCC(NC(C)C)C(O)c1ccc(O)c2[nH]c(=O)ccc12` (stereo not shown) [Procaterol, 8-hydroxy-5-[1-hydroxy-2-(isopropylamino)butyl]carbostyril hydrochloride hemihydrate, reference compound], for which, in data set [1], the ED50 was found to be 0.00064 mg/kg. Moreover, in data set [2], the LD50 was found to be 70.3 mg/kg and the selectivity ratio was 110000. For the same compound, the “Potency ratio (to Isoproterenol)” value in data set [3] (from molar concentration giving 50% relaxation of histamine-induced tracheal contraction, histamine 2HCl 1×10^-5 g/ml, Tyrode's solution 37° C.) was found to be 17.

As for `COc1ccc(CC(C)NCC(O)c2ccc(O)c3[nH]c(=O)ccc23)cc1` (stereo not shown) [compound (I)], in data set [4], the “toxicity (in words)” value was “considerably low”.

For orientation: ED50 means the dose that gives a 50% effect, or the effect in half of the subjects. In general, LD50 refers to the dose expected to kill half of the subjects tested. High values mean lower toxicity, low ones greater toxicity.
